The source of these data is patent US20190125646A1, “ORAL COMPOSITION FOR TOOTH WHITENING PRODUCT, AND KIT COMPRISING SAME” (LG HOUSEHOLD & HEALTH CARE LTD., priority 2013, published 2019).

“Also recorded” adds a separate entry of the source.

Series [1] in a line: Survey evaluation related to irritation (Experimental Example 3). It is filed as in vivo. Particulars: subjects' own evaluation after use, score 0-3; FIG. 3. An excerpt:
After using comparative example 2 and examples 1 and 2, each subject was allowed to evaluate the degree of irritation on a 3-point scale according to the following evaluation criteria.
2: Certainly sensible irritation.
3: Stop using due to irritation

Series [2] is described as follows: Brightness variation (Experimental Example 4). Particulars: gel first agent plus hydrogen peroxide 3.0% patch on stained HAP disk, removed after 1 hour; FIG. 4. Here is the method: Comparative examples 3 through 8 and example 5 were each attached to a stained HAP disk and were removed after 1 hour, and variations relative to initial brightness were measured and were indicated as ΔL.

Turning to `NCCS(=O)(=O)O` [taurine], the “degree of irritation (survey, 3-point scale)” value in series [1] was “significantly reduced”.

Turning to iron chloride, the “degree of irritation (survey, 3-point scale)” value in series [1] is on record as “more severe”. Besides, the “whitening effect (variation relative to initial brightness, ΔL)” value in series [2] is recorded as “highest tooth whitening effect; also recorded: remarkably superior effect than other metal ions”.
